Measurements taken from BindingDB's records for doi:10.1021/jm9707232 (Sapienza University of Rome, 1998).
pIC50: −log10 of the molar value.

Molecular target: Integrase (Human immunodeficiency virus 1, UniProt Q7ZJM1)
Test: Compound concentration required to reduce HIV-1 Integrase 3'-processing activity by 50%

Integrase, sequence (Q7ZJM1 whole entry): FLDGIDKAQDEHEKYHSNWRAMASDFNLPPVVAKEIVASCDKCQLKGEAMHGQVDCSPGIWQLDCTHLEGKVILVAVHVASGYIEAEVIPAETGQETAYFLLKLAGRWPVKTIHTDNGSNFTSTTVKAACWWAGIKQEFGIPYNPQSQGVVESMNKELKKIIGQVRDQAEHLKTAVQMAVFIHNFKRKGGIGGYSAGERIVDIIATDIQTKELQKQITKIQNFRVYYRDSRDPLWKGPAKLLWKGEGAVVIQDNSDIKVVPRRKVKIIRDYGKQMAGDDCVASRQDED

SMILES	pIC50
O=C(C=Cc1ccccc1)CC(=O)C=Cc1ccccc1 [5-Hydroxy-1,7-diphenylhepta-1,4,6-trien-3-one]	< 4.00
COc1ccc(C=CC(=O)CC(=O)C=Cc2ccc(OC)c(OC)c2)cc1OC [(1E,4Z,6E)-1,7-bis(3,4-dimethoxyphenyl)-5-hydroxyhepta-1,4,6-trien-3-one]	< 4.00
